# Target: T1, CFTR (Homo sapiens, UniProt P13569)
# T1 construct: expressed in transfected cells
# Experiment: IonWorks Quattro assay (CFTR Inhibitor Assay), whole-cell planar patch clamp
# Format: cell-based
# Conditions: inward current (−100 mV); CHO cells stably expressing WT-CFTR; CFTR activated by 10 μM forskolin; test compound incubated 10 min
# Excerpt: CFTR activity can be quantified by electrophysiology methods, using the whole-cell configuration of the patch clamp technique (Hamill O, Marty A, Neher E, Sakmann B and Sigworth F. ‘Improved patch-clamp techniques for high resolution current recording from cells and cell-free membrane patches.’ Pflugers Archive 1981 391: 85-100). This assay directly measures the currents associated with chloride flow through CFTR channels whilst either maintaining or adjusting the transmembrane voltage. This assay can use either single glass micropipettes or parallel planar arrays to measure CFTR activity from native or recombinant cell systems. Currents measured using parallel planar arrays can be quantified using an appropriately equipped instrument such as the IonWorks Quattro (Molecular Devices Corporation, Sunnyvale, Calif.). The Quattro system can measure CFTR currents from either a single cell per recording well (HT configuration) or alternatively from a population of 64 cells per well (Population Patch Clamp PPC) (Finkel A, Wittel A, Yang N, Handran S, Hughes J, Costantin J. ‘Population patch clamp improves data consistency and success rates in the measurement of ionic currents.’ J Biomol Screen. 2006 August; 11 (5):488-96).
# Chinese hamster ovary (CHO) cells stably expressing WT-CFTR channels were used for the IonWorks Quattro experiments. Cells were maintained at 37° C. in 5% v/v CO2 at 100% humidity in MEM alpha medium supplemented with 10% (v/v) FCS, 100 U/mL Penicillin/Streptomycin, and 100 μg/L methotrexate. For experiments, cells were grown in 225 cm^2 tissue culture flasks until almost confluent. Cells were removed from the flask using trypsin-EDTA and resuspended in extracellular recording solution for immediate experimentation.
# Cells, at a density of 1.5-2 million per mL, were placed on the Quattro system, added to the planar patch plate and seals allowed to establish for 5-10 mins. After assessing seal resistances (typically >50 MΩ), whole-cell access was obtained by perforation with 100 μg/mL amphotericin B. Baseline currents were measured by a pre-compound scan obtained by application of a voltage ramp from −100 to +100 mV. CFTR was activated by the addition of 10 μM forskolin to each of the 384 wells of the patch plate. After 5 min incubation the post-compound 1 currents were measured, again by application of a voltage ramp from −100 to +100 mV. Test compounds, diluted from 10 mM stocks in DMSO in extracellular solution were then added to the patch plate and were incubated for a further 10 min. The post-compound 2 currents were measured by the application of the same voltage ramp from −100 to +100 mV. The inhibition of CFTR was determined from the difference in current between the forskolin addition (post-compound 1) and the test compound (post-compound 2). This was determined at both −100 mV and +100 mV which represents the inward and outward current respectively.
# Extracellular solution (ECS): 145 mM NaCl, 4 mM CsCl, 5 mM D-glucose, 10 mM TES, 1 mM CaCl2, 1 mM MgCl2, pH 7.4 NaOH
# Intracellular solution (ICS): 113 mM L-Aspartic acid, 113 mM CsOH, 27 mM CsCl, 1 mM NaCl, 1 mM MgCl2, 1 mM EGTA, 10 mM TES. pH 7.2 with CsOH. Filter sterilized before use.
# T1 sequence (P13569 whole entry): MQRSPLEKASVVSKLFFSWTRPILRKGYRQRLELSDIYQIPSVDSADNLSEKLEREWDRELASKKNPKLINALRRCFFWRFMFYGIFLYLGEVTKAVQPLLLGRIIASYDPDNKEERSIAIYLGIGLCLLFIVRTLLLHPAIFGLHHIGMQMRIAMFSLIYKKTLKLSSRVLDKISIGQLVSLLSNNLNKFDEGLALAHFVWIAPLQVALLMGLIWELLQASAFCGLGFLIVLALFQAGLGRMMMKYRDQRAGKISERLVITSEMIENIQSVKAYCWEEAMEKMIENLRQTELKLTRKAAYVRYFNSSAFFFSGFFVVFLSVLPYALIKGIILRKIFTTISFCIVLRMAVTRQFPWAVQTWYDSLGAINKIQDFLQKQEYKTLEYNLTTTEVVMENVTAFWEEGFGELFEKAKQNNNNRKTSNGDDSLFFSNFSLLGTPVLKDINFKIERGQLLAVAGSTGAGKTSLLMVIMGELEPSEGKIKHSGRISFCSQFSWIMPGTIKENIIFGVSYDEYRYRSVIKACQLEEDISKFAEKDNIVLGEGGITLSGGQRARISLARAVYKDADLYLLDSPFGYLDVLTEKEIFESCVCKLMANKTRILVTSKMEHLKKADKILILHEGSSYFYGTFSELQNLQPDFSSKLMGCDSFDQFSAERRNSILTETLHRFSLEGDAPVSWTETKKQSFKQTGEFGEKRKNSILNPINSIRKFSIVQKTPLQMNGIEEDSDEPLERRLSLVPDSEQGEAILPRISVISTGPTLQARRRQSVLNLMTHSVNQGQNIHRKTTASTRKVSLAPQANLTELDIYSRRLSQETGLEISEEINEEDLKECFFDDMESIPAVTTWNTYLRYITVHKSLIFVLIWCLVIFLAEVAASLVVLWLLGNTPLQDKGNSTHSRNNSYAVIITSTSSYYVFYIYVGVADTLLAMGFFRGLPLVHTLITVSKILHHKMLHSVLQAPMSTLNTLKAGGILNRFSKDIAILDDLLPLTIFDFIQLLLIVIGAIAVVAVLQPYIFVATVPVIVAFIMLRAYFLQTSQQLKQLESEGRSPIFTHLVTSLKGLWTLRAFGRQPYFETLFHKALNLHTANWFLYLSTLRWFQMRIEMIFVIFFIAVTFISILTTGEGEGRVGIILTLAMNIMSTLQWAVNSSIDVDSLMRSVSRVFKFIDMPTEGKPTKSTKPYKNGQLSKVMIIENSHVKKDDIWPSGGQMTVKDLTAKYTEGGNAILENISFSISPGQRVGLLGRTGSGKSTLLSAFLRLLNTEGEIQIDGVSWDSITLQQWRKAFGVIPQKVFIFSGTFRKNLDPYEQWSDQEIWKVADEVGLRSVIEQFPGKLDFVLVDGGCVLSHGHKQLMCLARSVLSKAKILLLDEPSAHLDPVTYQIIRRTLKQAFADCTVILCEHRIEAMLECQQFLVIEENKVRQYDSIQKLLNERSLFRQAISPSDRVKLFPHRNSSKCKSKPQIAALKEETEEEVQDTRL
row,IC50,Compound
1,0.15 µM,"Cn1c(=O)c2c(-c3cccc(F)c3)n3c(c2n(C)c1=O)[C@H](c1nc(Cl)cs1)C[C@@H]3CO [Example 27a, (7R,9R)-9-(4-chlorothiazol-2-yl)-5-(3-fluorophenyl)-7-(hydroxymethyl)-1,3-dimethyl-8,9-dihydro-1H-pyrimido[4,5-a]pyrrolizine-2,4(3H,7H)-dione]"
2,0.33 µM,"Cn1c(=O)c2c(-c3ccccc3)n3c(c2n(C)c1=O)C(c1nc(Cl)cs1)C(C)(C)C3 (single isomer, unassigned) [Example 21a, 9-(4-chlorothiazol-2-yl)-1,3,8,8-tetramethyl-5-phenyl-8,9-dihydro-1H-pyrimido[4,5-a]pyrrolizine-2,4(3H,7H)-dione]"
3,0.07 µM,"Cn1c(=O)c2c(-c3cccc(C#N)c3)n3c(c2n(C)c1=O)[C@H](c1nc(Cl)cs1)CCC3 [Example 13a, (R)-3-(10-(4-chlorothiazol-2-yl)-1,3-dimethyl-2,4-dioxo-1,2,3,4,7,8,9,10-octahydropyrimido[4,5-a]indolizin-5-yl)benzonitrile]"
4,0.7 µM,"Cc1csc(C2CCNn3c(-c4cccc(Cl)c4)c4c(=O)n(C)c(=O)n(C)c4c32)n1 (racemic) [Example 10.2, 5-(3-Chlorophenyl)-1,3-dimethyl-10-(4-methylthiazol-2-yl)-7,8,9,10-tetrahydropyrimido[4′,5′:3,4]pyrrolo[1,2-b]pyridazine-2,4(1H,3H)-dione]"
5,0.11 µM,"Cc1csc(-c2c3c(=O)n(C)c(=O)n(C)c3c3n2C[C@@H](Cn2ccnc2)S[C@@H]3c2ccc(Cl)o2)n1 (single isomer, unassigned) [Example 28a, 8-((1H-imidazol-1-yl)methyl)-10-(5-chlorofuran-2-yl)-1,3-dimethyl-5-(4-methylthiazol-2-yl)-7,8-dihydro-1H-pyrimido[4′,5′:3,4]pyrrolo[2,1-c][1,4]thiazine-2,4(3H,10H)-dione]"
6,2.15 µM,"Cc1csc(C2CCNn3c(-c4ccccc4)c4c(=O)n(C)c(=O)n(C)c4c32)n1 (racemic) [Example 10.0, 1,3-Dimethyl-10-(4-methylthiazol-2-yl)-5-phenyl-7,8,9,10-tetrahydropyrimido[4′,5′:3,4]pyrrolo[1,2-b]pyridazine-2,4(1H,3H)-dione]"
7,> 30 µM,"Cc1ccc([C@H]2CCCn3c(-c4ccccc4)c4c(=O)n(C)c(=O)n(C)c4c32)o1 [Example 6.4, (S)-1,3-Dimethyl-10-(5-methylfuran-2-yl)-5-phenyl-7,8,9,10-tetrahydropyrimido[4,5-a]indolizine-2,4(1H,3H)-dione]"
8,9.14 µM,"Cc1ccc(C2CCn3c(-c4ccccc4)c4c(=O)n(C)c(=O)n(C)c4c32)o1 (racemic) [Example 11.0, 1,3-Dimethyl-9-(5-methylfuran-2-yl)-5-phenyl-8,9-dihydro-1H-pyrimido[4,5-a]pyrrolizine-2,4(3H,7H)-dione]"
9,1.45 µM,"Cn1c(=O)c2c(-c3cccc(C#N)c3)n3c(c2n(C)c1=O)C(c1nc(Cl)cs1)CCCC3 (single isomer, unassigned) [Example 31, 3-(11-(4-chlorothiazol-2-yl)-1,3-dimethyl-2,4-dioxo-2,3,4,7,8,9,10,11-octahydro-1H-pyrimido[4′,5′:3,4]pyrrolo[1,2-a]azepin-5-yl)benzonitrile]"
10,0.44 µM,"C=C1Cn2c(-c3cccc(F)c3)c3c(=O)n(C)c(=O)n(C)c3c2C1c1nc(Cl)cs1 (racemic) [Example 29, 9-(4-Chlorothiazol-2-yl)-5-(3-fluorophenyl)-1,3-dimethyl-8-methylene-8,9-dihydro-1H-pyrimido[4,5-a]pyrrolizine-2,4(3H,7H)-dione]"
11,0.16 µM,"Cc1csc(-c2c3c(=O)n(C)c(=O)n(C)c3c3n2C[C@@H](CN2CCOC2=O)S[C@@H]3c2ccc(Cl)o2)n1 (single isomer, unassigned) [Example 30a, 10-(5-chlorofuran-2-yl)-1,3-dimethyl-5-(4-methylthiazol-2-yl)-8-((2-oxooxazolidin-3-yl)methyl)-7,8-dihydro-1H-pyrimido[4′,5′:3,4]pyrrolo[2,1-c][1,4]thiazine-2,4(3H,10H)-dione]"
12,0.24 µM,"Cc1nc(-c2c3c(=O)n(C)c(=O)n(C)c3c3n2C[C@H](CO)S[C@H]3c2ccc(Cl)o2)cs1 (single isomer, unassigned) [Example 17.2, 10-(5-Chlorofuran-2-yl)-8-(hydroxymethyl)-1,3-dimethyl-5-(2-methylthiazol-4-yl)-7,8-dihydro-1H-pyrimido[4′,5′:3,4]pyrrolo[2,1-c][1,4]thiazine-2,4(3H,10H)-dione]"
13,0.05 µM,"Cn1c(=O)c2c(-c3cccc(F)c3)n3c(c2n(C)c1=O)[C@H](c1nc(Cl)cs1)C[C@@H](CO)C3 (single isomer, unassigned) [Example 23a, 10-(4-chlorothiazol-2-yl)-5-(3-fluorophenyl)-8-(hydroxymethyl)-1,3-dimethyl-7,8,9,10-tetrahydropyrimido[4,5-a]indolizine-2,4(1H,3H)-dione]"
14,0.25 µM,"Cc1csc(-c2c3c(=O)n(C)c(=O)n(C)c3c3n2C[C@@H](CN2CCCC2=O)S[C@@H]3c2ccc(Cl)o2)n1 (single isomer, unassigned) [Example 30.1a, 10-(5-chlorofuran-2-yl)-1,3-dimethyl-5-(4-methylthiazol-2-yl)-8-((2-oxopyrrolidin-1-yl)methyl)-7,8-dihydro-1H-pyrimido[4′,5′:3,4]pyrrolo[2,1-c][1,4]thiazine-2,4(3H,10H)-dione]"

row,Compound,IC50
1,"Cc1ccc(C2SCCn3c(-c4ccccc4)c4c(=O)n(C)c(=O)n(C)c4c32)s1 (racemic) [Example 1.10, 1,3-Dimethyl-10-(5-methylthiophen-2-yl)-5-phenyl-7,8-dihydro-1H-pyrimido[4′,5′:3,4]pyrrolo[2,1-c][1,4]thiazine-2,4(3H,10H)-dione]",8.08 µM
2,"CCOc1cccc(-c2c3c(=O)n(C)c(=O)n(C)c3c3n2CCSC3c2ccc(Cl)o2)c1 (single isomer, unassigned) [Example 15.12, 10-(5-Chlorofuran-2-yl)-5-(3-ethoxyphenyl)-1,3-dimethyl-7,8-dihydro-1H-pyrimido[4′,5′:3,4]pyrrolo[2,1-c][1,4]thiazine-2,4(3H,10H)-dione]",9.27 µM
3,"Cn1c(=O)c2c(-c3ccccc3)n3c(c2n(C)c1=O)C(c1cccc(Cl)c1)SCC3 (racemic) [Example 1.6, 10-(3-Chlorophenyl)-1,3-dimethyl-5-phenyl-7,8-dihydro-1H-pyrimido[4′,5′:3,4]pyrrolo[2,1-c][1,4]thiazine-2,4(3H,10H)-dione]",11.1 µM
4,"Cn1cc(-c2c3c(=O)n(C)c(=O)n(C)c3c3n2CCSC3c2ccc(Cl)o2)cn1 (racemic) [Example 15.8, 10-(5-Chlorofuran-2-yl)-1,3-dimethyl-5-(1-methyl-1H-pyrazol-4-yl)-7,8-dihydro-1H-pyrimido[4′,5′:3,4]pyrrolo[2,1-c][1,4]thiazine-2,4(3H,10H)-dione]",3.93 µM
5,"Cn1c(=O)c2c(-c3nc(C(=O)O)cs3)n3c(c2n(C)c1=O)C(c1ccc(Cl)o1)SCC3 (racemic) [Example 25, 2-(10-(5-Chlorofuran-2-yl)-1,3-dimethyl-2,4-dioxo-2,3,4,7,8,10-hexahydro-1H-pyrimido[4′,5′:3,4]pyrrolo[2,1-c][1,4]thiazin-5-yl)thiazole-4-carboxylic acid]",4.84 µM
6,"Cn1c(=O)c2c(-c3cccc(C#N)c3)n3c(c2n(C)c1=O)C(c1ccc(Cl)o1)SCC3 (single isomer, unassigned) [Example 3.5, 3-(10-(5-chlorofuran-2-yl)-1,3-dimethyl-2,4-dioxo-2,3,4,7,8,10-hexahydro-1H-pyrimido[4′,5′:3,4]pyrrolo[2,1-c][1,4]thiazin-5-yl)benzonitrile]",0.16 µM
7,"Cc1nnc(-c2c3c(=O)n(C)c(=O)n(C)c3c3n2CCSC3c2ccc(Cl)o2)o1 (racemic) [Example 15.9, 10-(5-Chlorofuran-2-yl)-1,3-dimethyl-5-(5-methyl-1,3,4-oxadiazol-2-yl)-7,8-dihydro-1H-pyrimido[4′,5′:3,4]pyrrolo[2,1-c][1,4]thiazine-2,4(3H,10H)-dione]",1.9 µM
